Experiments:
Papain = Papain (Carica papaya, UniProt P00784); type: biochemical
Chymotrypsin = Chymotrypsin (Bos taurus, UniProt P00766); assay: biochemical

Sequence of Papain (P00784 134-345 limits assumed): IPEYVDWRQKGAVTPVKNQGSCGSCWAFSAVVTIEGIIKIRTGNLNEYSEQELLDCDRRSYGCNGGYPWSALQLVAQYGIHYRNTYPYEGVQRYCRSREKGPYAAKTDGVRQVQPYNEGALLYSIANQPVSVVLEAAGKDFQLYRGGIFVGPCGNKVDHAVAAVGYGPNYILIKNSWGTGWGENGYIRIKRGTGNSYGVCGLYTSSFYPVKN

Structure (SMILES) | more potent inhibition for SARS CoV 3CL^pro than for papain (Papain) | IC50 (Chymotrypsin) [µM]
O=C1C(=O)N(Cc2cc3ccccc3s2)c2ccc(I)cc21 [Compound 4o] | 90–105 times | –
O=C1C(=O)N(Cc2cc3ccccc3s2)c2c(Br)cccc21 [Compound 4k] | 90–105 times | 10.4

Source: publication PMC7119080 (Bioorganic & Medicinal Chemistry Letters, 2005)
